For series [1], the system named is TGF-β1 induced total collagen accumulation in MRC-5 cells. As to the kind of experiment: Sircol collagen assay: inhibition of TGF-β1-induced total collagen accumulation. The format is cell-based, human. Particulars: for IC50: Homo sapiens, MRC5, 10 ng/mL TGF-β1, 48 h, Sircol collagen assay; for SI, selectivity index (SI = CC50/IC50): MRC-5 cells. Here is the method:
Higher SI values indicates better safety profile.
MRC-5 cells in 1 × 10^5 cells/mL density were seeded in TC treated 96-well plates and allowed to reach confluence for 48 h. The cells were then starved using MEM-NEAA containing 0.2% BSA for 24 h. After starvation, the medium was changed to MEM-NEAA supplemented with 0.2% BSA, 100 μM L-Proline, 100 μM Ascorbic acid, with or without 10 ng/mL TGF-β1 (Peprotech) in the presence of vehicle or different concentrations of compounds. After 48 h incubation, the MRC-5 cells were washed with phosphate buffered saline (PBS) and fixed in −20 °C precooled methanol for 10 min. The cells were than washed with PBS before incubation in 0.1% PSR staining solution (0.1% Sirus red in saturated water solution of picric acid) for 1 h. The staining solution was then removed and the cells were washed with 0.1% acetic acid for three times. 200 μL of 0.1 mol/L sodium hydroxide solution were added to each well and the plates were placed on a rocking platform for 1 h. The optical density (OD) values at 550 nm were determined with an Infinite 2000 spectrophotometer.

A short description of series [2]: Cytotoxicity assay (CCK-8). Particulars: human, MRC-5 cells (human fetal lung fibroblasts).
Description: Cytotoxicity of all compounds were also determined against MRC-5 cells, so as to calculate selectivity index (SI, CC50/IC50).
MRC-5 cells in passage between 21 to 26 were used for experiments.
MRC-5 cells were incubated with different concentrations of compounds for 48 h, and then 10 μL of CCK-8 solution were added to each well. The cells were incubated at 37 °C for another 3 h before determining the OD values at 492 nm. DMSO at 0.1% v/v final concentration was used to solubilize the test compounds, except for compound 3b, 3c, and 3e, where 1% v/v DMSO was used to ensure complete solubilization.
A further series has as its system MRC-5 fibroblasts. As to the kind of experiment: Scratch (wound healing) assay, TGF-β1-induced fibroblast migration. The format is cell-based, human. Conditions: 1000 μM, 10 ng/mL TGF-β1, 24 h (TGF-β1 alone 85.0%). The protocol: Fibroblast migration is the key event in pulmonary fibrogenesis. […] Inhibition of lung fibroblasts migration is a promising potential therapeutic target for IPF. We performed wound healing assay to investigate the inhibitory effect of 3f and matrine against fibroblast migration (Figure 7).
MRC-5 cells were seeded on 6-well plates and allowed to reach confluence for 48 h. The cell monolayer was gently scratched with a 1 mL pipette tip across the center of the well. After scratching, the cells were washed twice with medium to remove detached cells. The cells were then treated with or without 10 ng/mL TGF-β1 in the presence of vehicle or 10 μM 3f for 24 h. The gap area in wound region was quantitatively evaluated using ImageJ [30] and MRI wound healing tool plugin [31].

Experimental findings from paper PMC6470603, “Design and Synthesis of Matrine Derivatives as Novel Anti-Pulmonary Fibrotic Agents via Repression of the TGFβ/Smad Pathway” (Molecules, 2019) are described below.

With `CNC1CC(=O)N2CC3CCCN4CCCC(C34)C2C1` (stereo not shown) [2a, 13-methylamino-matrine], in series [1], the IC50 came to 65.3 ± 4.2 µM and the “SI, selectivity index (SI = CC50/IC50)” value worked out at 9.3. In series [2], the CC50 at 48 h was found to be 609 ± 29.8 µM.
On the same counts, the results for `CN(C)C1CC(=O)N2CC3CCCN4CCCC(C34)C2C1` (stereo not shown) [2b, 13-dimethylamino-matrine] are 92.1 ± 1.9 µM, 6.8 and 624 ± 13.2 µM.
Consider `O=C1CC(N2CCCC2)C[C@@H]2[C@H]3CCCN4CCC[C@@H](CN12)[C@@H]34` (stereo partly shown) [2c, 13-(pyrrolidine-1-yl)-matrine], for which, in series [1], inhibition was half-maximal at 256 ± 22.1 µM (IC50) and the “SI, selectivity index (SI = CC50/IC50)” value turned out to be 2.6. Besides, the CC50 at 48 h in series [2] was 676 ± 49.1 µM.
For `O=C1CC(N2CCOCC2)C[C@@H]2[C@H]3CCCN4CCC[C@@H](CN12)[C@@H]34` (stereo partly shown) [2d, 13-morpholinocyclohexane-matrine] the same measures were 138 ± 9.8 µM, 3.7 and 507 ± 25.3 µM.
As to `O=C1CC(n2ccc3ccccc32)C[C@@H]2[C@H]3CCCN4CCC[C@@H](CN12)[C@@H]34` (stereo partly shown) [3a, 13-(1H-indol-1-yl)-matrine], in series [1], half-maximal inhibition (IC50) required 28.3 ± 3.9 µM and the “SI, selectivity index (SI = CC50/IC50)” value is 3.8. For the same compound, in series [2], the CC50 at 48 h was 107 ± 5.9 µM.
For `Cc1cn(C2CC(=O)N3C[C@@H]4CCCN5CCC[C@@H]([C@H]45)[C@H]3C2)c2ccccc12` (stereo partly shown) [3b, 13-(3-methyl-1H-indol-1-yl)-matrine] the same measures were 39 ± 0.6 µM, 2.4 and 95.1 ± 6.5 µM.
In the case of `COc1cccc2c1ccn2C1CC(=O)N2C[C@@H]3CCCN4CCC[C@@H]([C@H]34)[C@H]2C1` (stereo partly shown) [3c, 13-(4-methoxy-1H-indol-1-yl)-matrine], in series [1], the midpoint of inhibition, the IC50, lay at 44.7 ± 3.6 µM and the “SI, selectivity index (SI = CC50/IC50)” value worked out at 1.3. Further, the CC50 at 48 h in series [2] was 56.7 ± 3.9 µM.
On to `O=C1CC(n2ccc3c([N+](=O)[O-])cccc32)C[C@@H]2[C@H]3CCCN4CCC[C@@H](CN12)[C@@H]34` (stereo partly shown) [3d, 13-(4-nitro-1H-indol-1-yl)-matrine], for which, in series [1], the half-maximal inhibitory concentration (IC50) was 4.3 ± 0.4 µM and the “SI, selectivity index (SI = CC50/IC50)” value stood at 7.6. In addition, the midpoint of cytotoxicity in series [2], the CC50 at 48 h, lay at 32.8 ± 2.7 µM.
For `COc1ccc2c(ccn2C2CC(=O)N3C[C@@H]4CCCN5CCC[C@@H]([C@H]45)[C@H]3C2)c1` (stereo partly shown) [3e, 13-(5-methoxy-1H-indol-1-yl)-matrine] the same measures were 68.1 ± 5.5 µM, 1.9 and 128 ± 1.4 µM.
On to `O=C1CC(n2ccc3cc(Br)ccc32)C[C@@H]2[C@H]3CCCN4CCC[C@@H](CN12)[C@@H]34` (stereo partly shown) [3g, 13-(5-bromo-1H-indol-1-yl)-matrine], for which, in series [1], the IC50 is 6.5 ± 1.2 µM and the “SI, selectivity index (SI = CC50/IC50)” value was 2.8. Besides, it took 18.2 ± 0.6 µM to reach half-maximal cytotoxicity in series [2] (CC50 at 48 h).
On the same counts, the results for `N#Cc1ccc2c(ccn2C2CC(=O)N3C[C@@H]4CCCN5CCC[C@@H]([C@H]45)[C@H]3C2)c1` (stereo partly shown) [3h, 13-(5-cyano-1H-indol-1-yl)-matrine] are 72.1 ± 4 µM, 2.1 and 154 ± 11 µM.
For `O=C1CC(n2ccc3cc([N+](=O)[O-])ccc32)C[C@@H]2[C@H]3CCCN4CCC[C@@H](CN12)[C@@H]34` (stereo partly shown) [3i, 13-(5-nitro-1H-indol-1-yl)-matrine] the same measures were 14.5 ± 1 µM, 4.5 and 65.4 ± 3.1 µM.
For `O=C1CC(n2ccc3cnccc32)CC2C3CCCN4CCCC(CN12)C34` (stereo not shown) [3j, 13-(1H-pyrrolo[3,2-c]pyridin-1-yl)-matrine] the same measures were 16.7 ± 3.5 µM, 6.8 and 114 ± 5.9 µM.
Regarding `O=C1CC(n2ccc3ccc(F)cc32)C[C@@H]2[C@H]3CCCN4CCC[C@@H](CN12)[C@@H]34` (stereo partly shown) [3k, 13-(6-fluoro-1H-indol-1-yl)-matrine], in series [1], half-maximal inhibition (IC50) required 23.1 ± 5.3 µM and the “SI, selectivity index (SI = CC50/IC50)” value was 3.4. Also, the CC50 at 48 h in series [2] amounted to 78.1 ± 3.4 µM.
For `O=C1CC(n2ccc3ccc(Cl)cc32)C[C@@H]2[C@H]3CCCN4CCC[C@@H](CN12)[C@@H]34` (stereo partly shown) [3l, 13-(6-chloro-1H-indol-1-yl)-matrine] the same measures were 27 ± 1.4 µM, 1.7 and 45.8 ± 1.1 µM.
On the same counts, the results for `O=C1CC(n2ccc3ccc([N+](=O)[O-])cc32)C[C@@H]2[C@H]3CCCN4CCC[C@@H](CN12)[C@@H]34` (stereo partly shown) [3m, 13-(6-nitro-1H-indol-1-yl)-matrine] are 19.3 ± 2.2 µM, 2.8 and 53.3 ± 1.9 µM.
On to `O=C1CC(n2ccc3ccncc32)C[C@@H]2[C@H]3CCCN4CCC[C@@H](CN12)[C@@H]34` (stereo partly shown) [3n, 13-(1H-pyrrolo[2,3-c]pyridin-1-yl)-matrine], for which, in series [1], it took 69.5 ± 8.2 µM to reach half-maximal inhibition (IC50) and the “SI, selectivity index (SI = CC50/IC50)” value turned out to be 1.2. This compound also showed a CC50 at 48 h in series [2] of 84.2 ± 2.2 µM.
Regarding `O=C1CCC[C@@H]2[C@H]3CCCN4CCC[C@@H](CN12)[C@@H]34` [Matrine], in series [1], the IC50 stood at 878 ± 68 µM and the “SI, selectivity index (SI = CC50/IC50)” value was 2.8. For the same compound, the CC50 at 48 h in series [2] amounted to 2470 ± 103 µM. Further, the “closure of wound area over 24 h period” value with MRC-5 fibroblasts is listed as 56.6%.
`Cc1ccc(=O)n(-c2ccccc2)c1` [Pirfenidone, reference compound]: in series [1], the IC50 is 1320 ± 98 µM and the “SI, selectivity index (SI = CC50/IC50)” value came to 3.1. For the same compound, the CC50 at 48 h in series [2] worked out at 4160 ± 239 µM.
